{"source": "ChEMBL document CHEMBL4330108", "about": "“The association between anti-tumor potency and structure-activity of protein-kinases inhibitors based on quinazoline molecular skeleton” (Bioorg Med Chem, 2019)", "key": {"[1]": {"experiment": "Inhibition of PI3K (unknown origin)", "parameters": "species or system Homo sapiens"}, "[2]": {"target": "T1, Vascular endothelial growth factor receptor 2 (Homo sapiens, UniProt P35968)", "T1 sequence (P35968 whole entry)": "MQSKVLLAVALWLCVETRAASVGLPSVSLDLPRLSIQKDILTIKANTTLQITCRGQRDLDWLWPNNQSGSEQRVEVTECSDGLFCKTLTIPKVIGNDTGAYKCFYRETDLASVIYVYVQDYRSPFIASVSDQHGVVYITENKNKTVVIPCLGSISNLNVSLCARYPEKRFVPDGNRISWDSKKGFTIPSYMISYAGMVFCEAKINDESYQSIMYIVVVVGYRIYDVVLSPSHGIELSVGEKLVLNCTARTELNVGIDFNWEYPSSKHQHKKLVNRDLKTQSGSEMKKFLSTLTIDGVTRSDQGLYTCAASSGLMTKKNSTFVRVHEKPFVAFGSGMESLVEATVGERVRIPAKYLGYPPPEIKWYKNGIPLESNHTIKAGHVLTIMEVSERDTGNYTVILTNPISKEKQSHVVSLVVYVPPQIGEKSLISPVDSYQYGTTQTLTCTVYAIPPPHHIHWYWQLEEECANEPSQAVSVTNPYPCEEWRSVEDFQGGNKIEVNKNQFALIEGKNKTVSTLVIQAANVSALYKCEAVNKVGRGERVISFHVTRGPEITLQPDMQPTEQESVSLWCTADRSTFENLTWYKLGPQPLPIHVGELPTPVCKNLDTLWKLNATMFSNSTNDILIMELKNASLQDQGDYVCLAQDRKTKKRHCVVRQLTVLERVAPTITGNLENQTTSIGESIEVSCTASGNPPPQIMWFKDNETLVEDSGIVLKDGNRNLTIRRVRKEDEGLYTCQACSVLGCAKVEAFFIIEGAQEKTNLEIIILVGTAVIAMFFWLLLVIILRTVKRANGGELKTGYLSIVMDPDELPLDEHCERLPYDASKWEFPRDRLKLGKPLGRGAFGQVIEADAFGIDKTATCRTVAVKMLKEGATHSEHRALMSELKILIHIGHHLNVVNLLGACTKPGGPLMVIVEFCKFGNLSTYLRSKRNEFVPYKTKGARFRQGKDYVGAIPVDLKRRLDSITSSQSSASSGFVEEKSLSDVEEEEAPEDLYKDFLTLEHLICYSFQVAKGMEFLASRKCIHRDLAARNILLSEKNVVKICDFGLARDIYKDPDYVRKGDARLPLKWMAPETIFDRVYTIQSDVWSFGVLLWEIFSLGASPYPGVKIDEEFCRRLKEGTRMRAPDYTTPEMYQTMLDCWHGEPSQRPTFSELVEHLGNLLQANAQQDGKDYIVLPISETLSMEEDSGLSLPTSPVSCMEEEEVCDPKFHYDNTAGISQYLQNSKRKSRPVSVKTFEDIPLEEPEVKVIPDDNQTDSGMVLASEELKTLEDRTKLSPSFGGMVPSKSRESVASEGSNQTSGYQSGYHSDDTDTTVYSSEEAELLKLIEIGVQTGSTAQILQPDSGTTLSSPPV", "experiment": "Inhibition of VEGFR2 (unknown origin) using FAM-labelled peptide as substrate measured after 10 mins"}, "[3]": {"target": "T1, Vascular endothelial growth factor receptor 2"}, "[4]": {"target": "Vascular endothelial growth factor receptor 1 (Homo sapiens, UniProt P17948)", "sequence (P17948 whole entry)": "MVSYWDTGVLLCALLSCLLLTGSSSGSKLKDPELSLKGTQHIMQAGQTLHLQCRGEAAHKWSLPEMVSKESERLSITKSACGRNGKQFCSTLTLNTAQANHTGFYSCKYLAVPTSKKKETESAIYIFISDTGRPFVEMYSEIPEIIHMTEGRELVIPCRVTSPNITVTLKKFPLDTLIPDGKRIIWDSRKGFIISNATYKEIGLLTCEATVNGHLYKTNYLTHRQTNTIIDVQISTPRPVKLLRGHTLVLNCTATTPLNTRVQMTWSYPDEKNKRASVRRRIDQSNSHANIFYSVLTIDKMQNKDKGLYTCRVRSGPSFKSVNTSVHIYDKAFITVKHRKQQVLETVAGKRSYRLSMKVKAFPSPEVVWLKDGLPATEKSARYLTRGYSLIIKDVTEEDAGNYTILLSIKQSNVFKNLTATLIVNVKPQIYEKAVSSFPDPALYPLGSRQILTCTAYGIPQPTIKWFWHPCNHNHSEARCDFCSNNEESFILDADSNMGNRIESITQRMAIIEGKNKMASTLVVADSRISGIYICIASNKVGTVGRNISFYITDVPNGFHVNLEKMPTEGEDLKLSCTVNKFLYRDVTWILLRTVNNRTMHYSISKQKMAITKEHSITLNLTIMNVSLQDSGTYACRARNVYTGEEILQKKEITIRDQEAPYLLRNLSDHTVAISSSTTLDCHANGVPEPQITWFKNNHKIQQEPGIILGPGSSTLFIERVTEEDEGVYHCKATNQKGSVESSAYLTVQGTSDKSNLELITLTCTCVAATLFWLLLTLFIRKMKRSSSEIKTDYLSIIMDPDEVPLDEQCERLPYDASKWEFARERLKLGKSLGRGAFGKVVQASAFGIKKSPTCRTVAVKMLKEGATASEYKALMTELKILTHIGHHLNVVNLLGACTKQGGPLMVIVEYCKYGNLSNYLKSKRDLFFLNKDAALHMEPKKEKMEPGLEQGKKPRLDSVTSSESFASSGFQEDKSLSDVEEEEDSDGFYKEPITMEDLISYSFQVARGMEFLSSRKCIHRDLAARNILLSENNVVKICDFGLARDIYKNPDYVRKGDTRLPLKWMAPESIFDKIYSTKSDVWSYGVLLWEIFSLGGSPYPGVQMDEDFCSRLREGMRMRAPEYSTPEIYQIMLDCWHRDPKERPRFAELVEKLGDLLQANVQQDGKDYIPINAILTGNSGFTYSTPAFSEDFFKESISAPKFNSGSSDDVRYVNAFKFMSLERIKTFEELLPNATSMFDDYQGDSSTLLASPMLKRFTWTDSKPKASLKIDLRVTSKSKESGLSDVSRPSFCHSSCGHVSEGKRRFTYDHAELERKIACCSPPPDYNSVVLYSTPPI", "experiment": "Inhibition of VEGFR1 (unknown origin)"}, "[5]": {"target": "Vascular endothelial growth factor receptor 3 (Homo sapiens, UniProt P35916)", "sequence (P35916 whole entry)": "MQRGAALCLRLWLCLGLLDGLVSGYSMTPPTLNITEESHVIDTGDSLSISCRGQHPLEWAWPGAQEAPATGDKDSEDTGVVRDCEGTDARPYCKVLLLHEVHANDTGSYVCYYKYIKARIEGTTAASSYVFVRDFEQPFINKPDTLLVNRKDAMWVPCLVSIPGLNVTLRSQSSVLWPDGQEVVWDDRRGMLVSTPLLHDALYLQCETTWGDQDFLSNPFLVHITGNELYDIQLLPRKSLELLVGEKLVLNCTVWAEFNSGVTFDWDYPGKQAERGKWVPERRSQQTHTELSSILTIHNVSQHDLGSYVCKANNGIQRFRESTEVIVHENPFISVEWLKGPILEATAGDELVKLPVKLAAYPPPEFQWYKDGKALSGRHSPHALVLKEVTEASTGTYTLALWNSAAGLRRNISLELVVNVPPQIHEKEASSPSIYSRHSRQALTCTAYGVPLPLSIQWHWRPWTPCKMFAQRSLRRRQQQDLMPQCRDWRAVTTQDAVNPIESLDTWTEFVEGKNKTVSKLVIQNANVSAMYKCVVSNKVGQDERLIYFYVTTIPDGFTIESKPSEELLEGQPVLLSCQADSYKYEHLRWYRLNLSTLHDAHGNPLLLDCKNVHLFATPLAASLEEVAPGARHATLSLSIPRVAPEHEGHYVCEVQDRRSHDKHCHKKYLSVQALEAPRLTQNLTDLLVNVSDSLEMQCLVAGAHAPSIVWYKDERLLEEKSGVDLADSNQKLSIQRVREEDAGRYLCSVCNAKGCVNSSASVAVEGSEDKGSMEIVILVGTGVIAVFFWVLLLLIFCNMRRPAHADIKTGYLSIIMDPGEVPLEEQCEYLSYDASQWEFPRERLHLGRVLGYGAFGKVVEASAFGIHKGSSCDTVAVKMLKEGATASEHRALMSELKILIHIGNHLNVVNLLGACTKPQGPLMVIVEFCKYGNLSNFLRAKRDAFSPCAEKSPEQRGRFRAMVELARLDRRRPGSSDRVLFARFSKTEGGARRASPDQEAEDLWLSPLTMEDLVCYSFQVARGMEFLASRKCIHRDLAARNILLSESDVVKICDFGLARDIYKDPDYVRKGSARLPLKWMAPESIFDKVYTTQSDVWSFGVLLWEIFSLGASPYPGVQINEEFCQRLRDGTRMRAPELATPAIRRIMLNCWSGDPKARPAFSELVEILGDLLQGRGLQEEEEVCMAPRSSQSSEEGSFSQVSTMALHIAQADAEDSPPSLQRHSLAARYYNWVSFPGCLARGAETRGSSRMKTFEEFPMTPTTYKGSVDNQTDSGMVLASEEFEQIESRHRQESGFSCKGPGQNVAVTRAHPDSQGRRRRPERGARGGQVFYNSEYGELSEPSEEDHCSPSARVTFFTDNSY", "experiment": "Inhibition of VEGFR3 (unknown origin)"}, "[6]": {"experiment": "Inhibition of bovine brain PI3K using phosphatidylinositol as substrate preincubated for 5 mins followed by [gamma-32P]ATP addition and measured after 10 mins by liquid scintillation counting method", "parameters": "species or system Bos taurus"}, "[7]": {"target": "Serine/threonine-protein kinase B-raf (Homo sapiens) (UniProt P15056)", "experiment": "Inhibition of wild-type B-Raf (unknown origin) at 10 uM relative to control"}, "[8]": {"experiment": "Inhibition of PI3K (unknown origin) using PIP2 as substrate measured after 2 hrs by luciferase-luciferin […] assay", "parameters": "species or system Homo sapiens"}, "[9]": {"target": "Epidermal growth factor receptor (Homo sapiens, UniProt P00533)", "experiment": "Inhibition of EGFR (unknown origin)"}, "[10]": {"target": "Receptor tyrosine-protein kinase erbB-2 (Homo sapiens, UniProt P04626)", "experiment": "Inhibition of HER2 (unknown origin)"}, "Histone deacetylase 1": {"target": "Histone deacetylase 1 (Homo sapiens, UniProt Q13547)", "sequence (Q13547 whole entry)": "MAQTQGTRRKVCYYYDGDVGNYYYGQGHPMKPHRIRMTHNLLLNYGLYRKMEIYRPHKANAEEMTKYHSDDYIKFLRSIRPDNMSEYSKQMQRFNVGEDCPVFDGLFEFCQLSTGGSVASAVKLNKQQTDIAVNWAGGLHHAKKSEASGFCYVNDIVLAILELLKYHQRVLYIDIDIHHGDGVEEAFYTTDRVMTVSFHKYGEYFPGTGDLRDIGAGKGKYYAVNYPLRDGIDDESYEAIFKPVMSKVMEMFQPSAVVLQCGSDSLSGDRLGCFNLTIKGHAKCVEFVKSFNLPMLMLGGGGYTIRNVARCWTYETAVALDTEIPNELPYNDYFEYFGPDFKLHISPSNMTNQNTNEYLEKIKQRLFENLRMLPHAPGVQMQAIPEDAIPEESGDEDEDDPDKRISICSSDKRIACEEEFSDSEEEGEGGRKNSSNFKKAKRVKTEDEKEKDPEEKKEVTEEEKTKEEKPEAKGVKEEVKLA", "experiment": "Inhibition of HDAC1 (unknown origin) using HDAC substrate by AFC probe based immunoprecipitation assay"}, "[11]": {"target": "Serine/threonine-protein kinase B-raf (Homo sapiens, UniProt P15056, V600E)", "experiment": "Inhibition of recombinant human GST-fused B-Raf V600E mutant using MEK1 as substrate measured after 60 mins by HTRF assay"}}, "note": "pIC50: −log10 of the molar value."}
{"smiles": "c1ccc2c(c1)ccn2-c1ncnc2ccc(-c3ccc4[nH]ccc4c3)cc12", "values": [{"measurement": "pIC50", "setting": "[1]", "value": "5.00 to 7.00"}]}
{"smiles": "O=C(Nc1ccc(Nc2ccc([N+](=O)[O-])c3ncnc(O)c23)cc1)Nc1cc(Cl)ccc1Cl", "values": [{"measurement": "pIC50", "setting": "[2]", "value": 7.38}]}
{"smiles": "COc1cc2ncnc(Nc3ccc4c(c3)CCCN4C(=O)Nc3cccc(Cl)c3)c2cc1OC", "values": [{"measurement": "pIC50", "setting": "[3]", "value": 7.52}, {"measurement": "pIC50", "setting": "[4]", "value": 8.15}, {"measurement": "pIC50", "setting": "[5]", "value": 8.11}]}
{"smiles": "O=c1cc(N2CCOCC2)oc2c(-c3ccccc3)cccc12", "note": "[LY-294002]", "values": [{"measurement": "pIC50", "setting": "[6]", "value": 6.00}]}
{"smiles": "CCOCCCOc1cc2ncnc(Oc3ccc(NC(=O)Nc4ccc(F)c(C(F)(F)F)c4)cc3)c2cc1N", "values": [{"measurement": "inhibition", "setting": "[7]", "value": 98.9, "unit": "%"}]}
{"smiles": "COc1cccc(NC(=O)N2CCCc3cc(Nc4ncnc5cc(OC)c(OC)cc45)ccc32)c1", "values": [{"measurement": "pIC50", "setting": "[3]", "value": 7.28}, {"measurement": "pIC50", "setting": "[4]", "value": 8.26}, {"measurement": "pIC50", "setting": "[5]", "value": 7.85}]}
{"smiles": "CCOc1cc2ncc(C#N)c(Nc3ccc(Cl)c(F)c3)c2cc1NC(=O)/C=C/CN(C)C", "values": [{"measurement": "pIC50", "setting": "[4]", "value": 5.90}]}
{"smiles": "Cc1cc(N2CCC(F)(F)C2)cc2c(N3CCc4ccc(C(=O)N5CCC(N)CC5)cc4C3)ncnc12", "values": [{"measurement": "pIC50", "setting": "[8]", "value": "> 6.30"}]}
{"smiles": "Cc1cccc(NC(=O)Nc2ccc(Nc3ccc([N+](=O)[O-])c4ncnc(O)c34)cc2)c1", "values": [{"measurement": "pIC50", "setting": "[2]", "value": 7.11}]}
{"smiles": "O=C(Nc1ccc(Nc2ccc([N+](=O)[O-])c3ncnc(O)c23)cc1)Nc1cccc(C(F)(F)F)c1", "values": [{"measurement": "pIC50", "setting": "[2]", "value": 7.35}]}
{"smiles": "CCOc1cc2ncc(C#N)c(Nc3ccc(OCc4ccccn4)c(F)c3)c2cc1NC(=O)/C=C/CN(C)C", "values": [{"measurement": "pIC50", "setting": "[9]", "value": 7.04}, {"measurement": "pIC50", "setting": "[10]", "value": 7.23}]}
{"smiles": "COc1cc2ncnc(Nc3ccc(CC(=O)Nc4cc(-c5cccs5)ccc4N)cc3)c2cc1OC", "values": [{"measurement": "pIC50", "setting": "Histone deacetylase 1", "value": 6.75}]}
{"smiles": "COc1cc2ncnc(Nc3ccc4c(c3)CCCN4C(=O)Nc3ccc(C(C)=O)cc3)c2cc1OC", "values": [{"measurement": "pIC50", "setting": "[3]", "value": 7.52}, {"measurement": "pIC50", "setting": "[4]", "value": 8.02}, {"measurement": "pIC50", "setting": "[5]", "value": 7.76}]}
{"smiles": "Cc1ccc(CC[C@@H]2CCN2C)c(NC(=O)Nc2cccc(Oc3ccc4nc[nH]c(=O)c4c3)c2)c1", "values": [{"measurement": "pIC50", "setting": "[11]", "value": 8.41}]}
{"smiles": "O=C(Nc1ccc(Nc2ccc([N+](=O)[O-])c3ncnc(O)c23)cc1)Nc1cc(C(F)(F)F)ccc1Cl", "values": [{"measurement": "pIC50", "setting": "[2]", "value": 7.92}]}
